Reference: patent publication US6846845B2, “Heat shock protein inducer” (Eisai Co., Ltd., priority 2002, dated 2005)

Columns and labels:
Type in all cases: in vivo, rat
HSP70 = experiment: Effect of chelerythrine pretreatment on GGA-induced HSP70 expression in the heart (Western immunoblotting), Example 2; details: 24 h after GGA 200 mg/kg oral or vehicle; chelerythrine 5 mg/kg i.v. pretreatment, FIG. 8
Procedure: (§1) Male Sprague-Dawley rats (220-250 g) were used. GGA, as an emulsion with 5% gum arabic and 0.008% tocopherol, was given orally at a dose of 200 mg/kg. Rats were classified into 4 groups. FIG. 7 is a diagrammatic representation of experimental protocol. […] Twenty-four hours after oral administration of GGA or vehicle, rats were anesthetized (sodium pentobarbital, 50 mg/kg IP) and heparinized (500 IU/kg IP). Hearts were excised, immediately frozen in liquid nitrogen, and stored at −70° C. until use for Western blot analysis (n=4 for each group). […]
(§2) To analyze the expression of HSP70, the frozen heart samples were homogenized with SDS sample buffer (pH 6.8, 20% glycerol, 6% SDS, 0.12M Tris), centrifuged and boiled (Maloyan A, Palmon A, Horowitz M. Heat acclimation increases the basal HSP70 level and alters its production dynamics during heat stress. Am J Physiol. 1999; 276:R1506-R1515.). […] The total protein concentration of heart was quantified by the Bradford method (Bradford MM. A rapid and sensitive method for quantitation of microgram quantities of protein utilizing the principle of protein-dye binding. Anal. Biochem. 1976;72:248-254). […] The proteins were detected by ECL with exposure to Hyperfilm (Amersham Pharmacia). The amount of protein on the immunoblots was quantified using National Institutes of Health image software. […]

PKCδ = experiment: Translocation of PKCδ in particulate and cytosolic heart fractions (Western immunoblotting); details: 24 h after GGA 200 mg/kg oral or vehicle; chelerythrine 5 mg/kg i.v. pretreatment, FIG. 10
PKC (α, β, γ and ε) = experiment: Translocation of PKC isoforms α, β, γ and ε in particulate and cytosolic heart fractions (Western immunoblotting); details: 24 h after GGA 200 mg/kg oral or vehicle; chelerythrine 5 mg/kg i.v. pretreatment, FIG. 10
[1] = system: heat shock factor 1 (HSF1); experiment: HSF1 phosphorylation and translocation in cytosolic and nuclear heart fractions (Western immunoblotting); details: 24 h after GGA 200 mg/kg oral or vehicle; chelerythrine 5 mg/kg i.v. pretreatment, FIG. 9
Procedure: as §1, §2

isolated perfused heart = experiment: Isolated perfused heart experiments (Langendorff, 20 min no-flow global ischemia, 30 min reperfusion), Example 2
Procedure: Male Sprague-Dawley rats (220-250 g) were used. GGA, as an emulsion with 5% gum arabic and 0.008% tocopherol, was given orally at a dose of 200 mg/kg. Rats were classified into 4 groups. FIG. 7 is a diagrammatic representation of experimental protocol. […] Twenty-four hours after oral administration of GGA or vehicle, rats were anesthetized (sodium pentobarbital, 50 mg/kg IP) and heparinized (500 IU/kg IP). Hearts were excised, immediately frozen in liquid nitrogen, and stored at −70° C. until use for Western blot analysis (n=4 for each group). To examine the cardiac function during ischemia and reperfusion, hearts of each group were prepared for isolated perfused experiments using Langendorff apparatus (n=7-9 for each group, FIG. 7).
Twenty-four hours after administration-of 200 mg/kg of GGA or vehicle, rats of 4 groups were heparinized (500 IU/kg, IP) and anesthetized with sodium pentobarbital (50 mg/kg, IP). Each heart was isolated and perfused retrogradely using the Langendorff method with Krebs-Henseleit buffer (pH 7.4, [in mM] 118 NaCl, 4.7 KCl, 2.5 CaCl2, 1.2 MgSO4, 1.2 KH2PO4, 25.0 Na2HCO3, 11.0 glucose) equilibrated with 95% O2-5% CO2 gas mixture at 36.5° C. at a constant pressure of 75 mm Hg. A water-filled latex balloon was inserted through the mitral orifice into the left ventricle (LV) and the LV end-diastolic pressure (LVEDP) was adjusted to 0-5 mm Hg. During the initial 10 min of constant pressure perfusion, the perfusion flow rate was determined for each heart, which was then perfused at a determined perfusion rate using a microtube pump while the heart was covered with water-jacketed glassware and the relative humidity maintained at 90% or more. Normothermic no-flow global ischemia was initiated for 20 min, followed by reperfusion for 30 min. The coronary effluent during the 30 min of reperfusion period was collected for measurement of creatine kinase content (released CK).
LV pressure was monitored using a pressure transducer to obtain the peak positive and negative first derivatives of LV pressure (dP/dtmax and dP/dtmin). […] Coronary perfusion pressure (CPP) was defined as the hydraulic pressure measured at the level of aortic cannulation. LV pressure, CPP and electrocardiogram were continuously recorded on a polygraph recorder (WS-681G, Nihon Kohden) and stored on a PCM data recorder (RD-111T, TEAC) for later analysis.
Data are expressed as mean ±SEM. Serial changes in LVDP, LVEDP, CPP, and dP/dt were analyzed by two-way analysis of variance (ANOVA) followed by the Bonferroni/Dunn test, unless otherwise specified. Comparisons among groups with respect to the hemodynamic parameters at baseline and the ratio of released CK to ventricular weight were analyzed by one-way ANOVA followed by the Bonferroni/Dunn test. […]

COc1ccc2c(c[n+](C)c3c4cc5c(cc4ccc23)OCO5)c1OC [chelerythrine, reference compound]
HSP70 expression in the heart (relative density to control group) (HSP70): did not influence
PKCδ in the particulate fraction / particulate/cytosol ratio versus CNT group (PKCδ): did not influence
PKC isoforms α, β, γ and ε in cytosolic and particulate fractions (PKC (α, β, γ and ε)): not influenced
amount of phosphorylated form of HSF1 in the nuclear fraction [1]: did not significantly influence
released creatine kinase (CK) relative to ventricular weight (isolated perfused heart; 30-min reperfusion period after 20 min ischemia, FIG. 12): similar
recovery of LVDP, LVEDP and dP/dt on reperfusion versus CNT group (isolated perfused heart; 20 min no-flow global ischemia, 30 min reperfusion, FIG. 11): similar
